pKi: −log10 of the molar value.
Assay: Tested for the ability to inhibit Ins(1,4,5)P 3-phosphatase

SMILES: OC1C(O)C(OP(O)(O)=S)C(OP(O)(O)=S)C(O)C1OP(O)(O)=S (stereo not drawn) [(-)-chiro-inositol 1,4,6-trisphosphorothioate]
- pKi: 3.01

Reference: BindingDB's records for doi:10.1016/S0960-894X(00)80421-7 (1992)
